The text below walks through data of patent publication US6015941A, “Peptide derivatives of tachyplesin having antimicrobial activity” (Pioneer Hi-Bred International, Inc., priority 1997, dated 2000).

Like-named read-outs stand apart in the source and are kept apart here. Positions of bridges follow the written chain, without caps; N, C: chain ends. Residues, ends and D or L forms follow the SMILES beside them. Where only a bound is given, the exact number is not on record here.

The test system of data set [1] is Salmonella typhimurium (ATCC 13311). It is filed as cell-based.
Data set [2] has as its system Shigella dysenteriae (ATCC 13313). In words: Disk diffusion assay, human pathogens. Type of data set: cell-based.
In a further data set the test system is Aspergillus flavus. It is filed as cell-based.
In the next data set the test system is Fusarium moniliforme. Type of data set: cell-based.
Data set [3] concerns human erythrocytes. The following applies: red cells of human, 100 μM.
The test system of another data set is Fusarium graminearum. Type of data set: cell-based.
The test system of data set [4] is Pseudomonas aeruginosa (ATCC 21036). It is filed as cell-based.
In data set [5] the test system is Candida albicans (ATCC 10231). It is filed as cell-based.
Data set [6] has as its system maize protoplasts (Black Mexican Sweet).
A further data set concerns E. coli. Type of data set: cell-based.
Data set [7] concerns Staphylococcus aureaus (ATCC 25923). It is filed as cell-based, S. aureus.
Data set [8] has as its system human erythrocytes. Conditions: cited from earlier work.
The mark [9] stands for this setting: average of two independent measurements, SD 15%.
Where [10] appears, read: minimum complete inhibitory concentration, average of two measurements.

Regarding `CC[C@H](C)[C@H](NC(=O)CN)C(=O)NCC(=O)N[C@@H](C)C(=O)N[C@H](C(=O)N[C@@H](CC(C)C)C(=O)N[C@@H](CCCCN)C(=O)N[C@H](C(=O)N[C@@H](CC(C)C)C(=O)N[C@H](C(=O)N[C@H](C(=O)NCC(=O)N[C@@H](CC(C)C)C(=O)N1CCC[C@H]1C(=O)N[C@@H](C)C(=O)N[C@@H](CC(C)C)C(=O)N[C@H](C(=O)N[C@@H](CO)C(=O)N[C@@H](Cc1c[nH]c2ccccc12)C(=O)N[C@H](C(=O)N[C@@H](CCCCN)C(=O)N[C@@H](CCCNC(=N)N)C(=O)N[C@@H](CCCCN)C(=O)N[C@@H](CCCNC(=N)N)C(=O)N[C@@H](CCC(N)=O)C(=O)N[C@@H](CCC(N)=O)C(N)=O)[C@@H](C)CC)[C@@H](C)CC)[C@@H](C)O)[C@@H](C)O)C(C)C)C(C)C` [Melittin], the “lysis of rabbit erythrocytes” value in the data set on rabbit erythrocytes is listed as “complete lysis”.
With `CC[C@H](C)[C@@H]1NC(=O)CNC(=O)[C@H](CCCNC(=N)N)NC(=O)[C@H](Cc2ccc(O)cc2)NC(=O)[C@@H]2CSSC[C@H](NC1=O)C(=O)N[C@@H](Cc1ccc(O)cc1)C(=O)N[C@@H](CCCNC(=N)N)C(=O)N[C@@H](CCCNC(=N)N)C(=O)N[C@H](C(=O)N[C@@H](CCCNC(=N)N)C(=O)O)CSSC[C@H](NC(=O)[C@H](Cc1c[nH]c3ccccc13)NC(=O)[C@@H](N)CCCCN)C(=O)N[C@@H](Cc1ccccc1)C(=O)N[C@@H](CCCNC(=N)N)C(=O)N[C@@H](C(C)C)C(=O)N2` [TP, tachyplesin] (H-KWCFRVCYRGICYRRCR-OH; disulfide 3-16, 7-12), the S. typhimurium zone size in data set [1] was found to be 18 mm. Besides, in the data set with rabbit erythrocytes, the “lysis of rabbit erythrocytes” value is “little or no activity”. Further, the “S. dysenteria zone size” value in data set [2] (50 μg per disk) is on record as 18 mm. Besides, the “S. dysenteria zone size” value in [2] (100 μg per disk) turned out to be 18 mm. For the same compound, in the data set on Aspergillus flavus, the “A. flavus MCIC” value was found to be 34 and the A. flavus MIC is 13 µM. Also, in the data set with Fusarium moniliforme, the “F. moniliforme MCIC” value was 21 and the F. moniliforme MIC was 8 µM. Also, the “hemolysis of human erythrocytes” value with human erythrocytes [3] is given as “about 15%”. Further, the “F. graminearum MIC” value in the data set with Fusarium graminearum (setting [9]) came to 8 µM. In the data set on Fusarium graminearum (setting [10]), the “F. graminearum MCIC” value is 17 µM. The P. aeruginosa zone size in data set [4] came out at 14 mm. In data set [5], this compound returned a C. albicans zone size of 16 mm. The “order of toxicity as measured by cell viability” value in [6] was “TPF>TP/TPM>TPI/TPL>TPY>TPA/TPV and TPD”. For the same compound, in the data set with E. coli, the “E. coli MCIC” value was 3 and the E. coli MIC was found to be 1 µM. This compound displayed a S. aureus zone size in data set [7] of 18 mm.
Regarding `CC[C@H](C)[C@@H]1NC(=O)CNC(=O)[C@H](CCCNC(=N)N)NC(=O)[C@H](Cc2ccc(O)cc2)NC(=O)[C@@H]2CSSC[C@H](NC1=O)C(=O)N[C@@H](Cc1ccc(O)cc1)C(=O)N[C@@H](CCCNC(=N)N)C(=O)N[C@@H](CCCNC(=N)N)C(=O)N[C@H](C(=O)N[C@@H](CCCNC(=N)N)C(N)=O)CSSC[C@H](NC(=O)[C@H](Cc1c[nH]c3ccccc13)NC(=O)[C@@H](N)CCCCN)C(=O)N[C@@H](Cc1ccccc1)C(=O)N[C@@H](CCCNC(=N)N)C(=O)N[C@@H](C(C)C)C(=O)N2` [amidated-TP] (H-KWCFRVCYRGICYRRCR-NH2; disulfide 3-16, 7-12), the “lysis of human erythrocytes” value with human erythrocytes [8] is 100%. In the data set on human erythrocytes [3], the “hemolysis of human erythrocytes” value was “about 30%”.
Take cecropin B: in the data set with Aspergillus flavus, the “A. flavus MCIC” value was more than 20 and the A. flavus MIC is more than 20 µM. Also, in the data set with Fusarium moniliforme, the “F. moniliforme MCIC” value stood at 20 and the F. moniliforme MIC was determined as 3 µM. For the same compound, the “F. graminearum MIC” value in the data set on Fusarium graminearum (setting [9]) is 3 µM. Moreover, the “F. graminearum MCIC” value with Fusarium graminearum (setting [10]) was 5 µM.
Turning to mastoparan [mastoporan], in the data set on Aspergillus flavus, the “A. flavus MCIC” value was more than 50 and the A. flavus MIC was 24 µM. In the data set on Fusarium moniliforme, the “F. moniliforme MCIC” value worked out at 11 and the F. moniliforme MIC was determined as 3 µM. In addition, in the data set on Fusarium graminearum, the “F. graminearum MCIC” value is recorded as 8 and the F. graminearum MIC amounted to 5 µM.
